Test results as given in PubChem BioAssay (NCI).
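All cell lines were grown in 96-well plates and treated with compound for 48 hours. TGI is the concentration that stops growth completely.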

How the values were obtained:
Assay in all cases: DTP human tumour cell line panel, 48 h
SK-MEL-5 melanoma = system: SK-MEL-5 melanoma
MOLT-4 leukemia = system: MOLT-4 leukemia
T-47D breast = system: T-47D breast
MDA-MB-435 = system: MDA-MB-435
OVCAR-3 ovarian = system: OVCAR-3 ovarian
NCI-H23 lung = system: NCI-H23 lung
RPMI-8226 leukemia = system: RPMI-8226 leukemia
SF-295 CNS = system: SF-295 CNS
HCT-15 colon = system: HCT-15 colon
CAKI-1 renal = system: CAKI-1 renal
NCI-H522 lung = system: NCI-H522 lung
SW-620 colon = system: SW-620 colon
SF-268 CNS = system: SF-268 CNS
A549 NSCLC = system: A549 NSCLC
M14 melanoma = system: M14 melanoma
CCRF-CEM leukemia = system: CCRF-CEM leukemia
U251 CNS = system: U251 CNS
UACC-62 melanoma = system: UACC-62 melanoma
SK-OV-3 ovarian = system: SK-OV-3 ovarian
HS 578T breast = system: HS 578T breast
DU-145 prostate = system: DU-145 prostate
MALME-3M melanoma = system: MALME-3M melanoma
MCF7 breast = system: MCF7 breast
TK-10 renal = system: TK-10 renal
HT29 colon = system: HT29 colon
SNB-75 CNS = system: SNB-75 CNS
OVCAR-5 ovarian = system: OVCAR-5 ovarian
HCT-116 colon = system: HCT-116 colon
786-0 renal = system: 786-0 renal
NCI-H226 lung = system: NCI-H226 lung
HCC-2998 colon = system: HCC-2998 colon
IGROV1 ovarian = system: IGROV1 ovarian
COLO 205 colon = system: COLO 205 colon
SK-MEL-28 melanoma = system: SK-MEL-28 melanoma
OVCAR-8 ovarian = system: OVCAR-8 ovarian
ACHN renal = system: ACHN renal
NCI-H460 lung = system: NCI-H460 lung
RXF 393 renal = system: RXF 393 renal
HOP-62 NSCLC = system: HOP-62 NSCLC
PC-3 prostate = system: PC-3 prostate
NCI/ADR-RES ovarian = system: NCI/ADR-RES ovarian
MDA-MB-231 breast = system: MDA-MB-231 breast
SN12C renal = system: SN12C renal
BT-549 breast = system: BT-549 breast
OVCAR-4 ovarian = system: OVCAR-4 ovarian
SNB-19 CNS = system: SNB-19 CNS
UACC-257 melanoma = system: UACC-257 melanoma
K-562 leukemia = system: K-562 leukemia
UO-31 renal = system: UO-31 renal
SK-MEL-2 melanoma = system: SK-MEL-2 melanoma
EKVX NSCLC = system: EKVX NSCLC
HL-60(TB) leukemia = system: HL-60(TB) leukemia
KM12 colon = system: KM12 colon

Measured: TGI

c1ccc(-c2cn3nc(N4CCOCC4)sc3n2)cc1
> 100 µM: all assays above
